Measured values as given in patent publication US20130183362A1, “SYNTHESIS OF ZINC ACRYLATE COPOLYMER FROM ACID FUNCTIONAL COPOLYMER, ZINC PYRITHIONE, AND COPPER COMPOUND” (ARCH CHEMICALS, INC., priority 2010, published 2013).
Read-outs that look alike come from different tables or passages of the source.

Settings: SEM images; for Ave. Aspect Ratio (length/width): Hitachi S-300N, length divided by width
Procedure: All images were obtained using a Hitachi S-300N Scanning electron Microscope.
Procedure: Aspect ratio was determined by superimposing a micron scale over the particle images and visually comparing the width and length of the particles to the scale. Length divided by width determines the aspect ratio. The images were obtained using a Hitachi S-300N Scanning electron Microscope.

SMILES | Ave. Aspect Ratio (length/width) | particles having an aspect ratio greater than 15 | Ave. Aspect Ratio (length/width) (listed as commercially available milled copper pyrithione)
On1ccccc1=S.On1ccccc1=S.[Cu] [Sample 507C, copper pyrithione] | 12.2 | – | –
On1ccccc1=S.On1ccccc1=S.[Cu] [Sample 508D, copper pyrithione] | 9.1 | – | –
On1ccccc1=S.On1ccccc1=S.[Cu] [Sample 513, copper pyrithione] | 4.3 | none of the particles | 4.3
